Results: patent publication US7485651B2, “Compounds with activity on muscarinic receptors” (Acadia Pharmaceuticals, Inc., priority 1998, dated 2009)

Key:
[1] = biological target: T1, m1 receptor (Homo sapiens, UniProt P11229); assay: R-SAT / NIH 3T3 cells transfected with m1 muscarinic receptor; format: cell-based; details: NIH3T3; m1; compound at 1.5 μM; maximum = response to 10 μM carbachol; read-out: Cellular response as a percentage of the maximum response of the cells
T1 construct: expressed in transfected cells; host or cells: NIH 3T3 (ATCC CRL 1658)
T1 sequence (P11229 1-460): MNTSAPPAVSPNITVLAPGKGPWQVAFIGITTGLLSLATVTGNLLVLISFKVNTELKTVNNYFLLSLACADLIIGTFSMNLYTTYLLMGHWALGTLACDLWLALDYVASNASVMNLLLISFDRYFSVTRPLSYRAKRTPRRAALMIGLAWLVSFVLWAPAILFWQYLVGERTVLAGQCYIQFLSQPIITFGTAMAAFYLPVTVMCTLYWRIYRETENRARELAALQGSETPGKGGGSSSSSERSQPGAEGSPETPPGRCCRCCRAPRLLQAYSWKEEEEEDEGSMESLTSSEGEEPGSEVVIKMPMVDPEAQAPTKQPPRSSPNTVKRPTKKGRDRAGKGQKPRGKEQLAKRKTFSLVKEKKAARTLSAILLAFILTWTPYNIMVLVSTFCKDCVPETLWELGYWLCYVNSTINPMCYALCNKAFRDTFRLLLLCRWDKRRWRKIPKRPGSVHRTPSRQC
Method: Cell amplification is detected as increased levels of a marker also expressed by the cells.
The cells were treated with trypsin-EDTA, spun down and plated at 2×10^6 per 15 cm dish in 20 m1 of DMEM containing 10% calf serum.
(§1) On day one, the cells were transfected using the Superfect transfection reagent (available from Qiagen, Valencia, Calif.) in accordance with the manufacturer's instructions. Receptor DNA, β-gal DNA (pSI-β-galactosidase available from Promega, Madison, Wis.), chimeric Gq-i5 DNA for the m2 and m4 receptor subtype assays, and salmon sperm DNA (available from Sigma, St. Louis, […].) as filler to a total of 20 μg DNA was added per plate. Prior to addition to the plates, 60 μl Superfect was added to the DNA and mixed thoroughly by pipetting up and down several times. The mixture was incubated at room temperature for 10-15 minutes. The media were aspirated, and 12 ml fresh DMEM containing 10% calf serum and 50 units/m1 penicillin/streptomycin was added to the plates. The DNA-Superfect solution was mixed once more with a pipette and added to the plate which was swirled to distribute the DNA mixture evenly over the surface. The cells were incubated overnight at 37° C. and 5% CO2. After incubation, the media were aspirated and the plates were rinsed once with a 15 m1 volume of Hank's Buffered Saline. The plates were swirled to ensure thorough rinsing. 20 m1 fresh DMEM supplemented with 10% calf serum and 50 units/m1 penicillin/streptomycin was added to the plates. The cells were incubated for 24-48 hours until the plates were 100% confluent.
(§2) Assay of NIH 3T3 cells transfected with muscarinic receptor subtypes (general procedure) DMEM containing 2% Cyto-SF3 was heated at 37° C. in a water bath under sterile conditions. Sterile working stock solutions of test compounds to be assayed were prepared by diluting the compounds in DMEM to 8× the final concentration for testing. The compound (carbachol) to be included in the assay as a positive control was also diluted in DMEM to 8× the final concentration. 50 μL of the DMEM containing 2% Cyto-SF3 was added to each well of 96-well microtiter plates under sterile conditions. Then, 16 of compound solutions were added to the top wells of the plates, and dilution of the solutions was performed by taking 16 μl of the compound solutions from the top wells and pipetting them into the next row of wells. This procedure was repeated with each subsequent row of wells, except that 50 μl medium alone was added to the baseline control wells (the wells that contain medium and cells, but not test compounds) and plate control wells (wells containing medium, but not test compounds and cells). The plates were then placed in an incubator at 37° C. to equilibrate temperature and pH.
When the cell cultures had reached 100% confluence, the medium was aspirated and each plate was rinsed with 15 m1 Hank's Buffered Saline (HBS). The cells were left in the incubator for about 10-15 minutes until the HBS had turned slightly yellow. The HBS was then aspirated and 1 m1 trypsin was added to each plate and swirled so as to completely cover the plates. The edges of the plates were gently rapped several times to loosen the cells. After the cells had been dislodged from the surface, 8 m1 DMEM containing 10% calf serum and 50 units/m1 penicillin and 50 units/m1 streptomycin was added to inhibit the trypsin. The plates were rinsed with this medium, and the cells were pipetted into a tube. The cells were centrifuged at 1000 rpm for 5-10 min. in an IEC Centra CL2 centrifuge (produced by Sorvall). Afterwards, the medium was carefully aspirated so as not to dislodge the cells. The cell pellet was suspended in 1600 μl DMEM containing 10% calf serum and 50 units/m1 penicillin and 50 units/m1 streptomycin, after which 20 m1 DMEM supplemented with 2% Cyto-SF3 was added. 50 μl aliquots of this cell suspension was added to the wells of the 96-well microtiter plates prepared above (except for the plate control wells).

[2] = biological target: T2, m3 receptor (Homo sapiens, UniProt P20309); assay: R-SAT / NIH 3T3 cells transfected with m3 muscarinic receptor; format: cell-based; details: NIH3T3; m3; compound at 1.5 μM; maximum = response to 10 μM carbachol; read-out: Cellular response as a percentage of the maximum response of the cells
T2 construct: expressed in transfected cells; host or cells: NIH 3T3 (ATCC CRL 1658)
Excerpt: (§3) A particularly convenient functional assay system is the receptor selection and amplification assay disclosed in U.S. Pat. No. 5,707,798 describing a method of screening for bioactive compounds by utilizing the ability of cells transfected with receptor DNA, e.g. coding for the different muscarinic subtypes, to amplify in the presence of a ligand of the receptor. Cell amplification is detected as increased levels of a marker also expressed by the cells.
(§4) Transfection of cells with muscarinic receptor DNAs (general procedure) NIH 3T3 cells (available from the American Type Culture Collection as ATCC CRL 1658) were grown at 37° C. in a humidified atmosphere (5% CO2) incubator in Dulbecco's modified Eagle's medium (DMEM) supplemented with 4.5 g/l glucose, 4 mM glutamine, 50 units/m1 penicillin, 50 units/m1 streptomycin (available from Advanced Biotechnologies, Inc., Gaithersburg, Md.) and 10% calf serum (available from Sigma, St. Louis, […].). The cells were treated with trypsin-EDTA, spun down and plated at 2×10^6 per 15 cm dish in 20 m1 of DMEM containing 10% calf serum.
(§5) The m1-m5 muscarinic receptor subtypes were cloned substantially as described by Bonner et al., Science 237, 1987, p. 527, and Bonner et al., Neuron 1, 1988, p. 403. For the m2 and m4 receptors, the cells were co-transfected with DNA encoding a chimera between the Gq protein and the five carboxy-terminal amino acids of the Gi protein (the Gq-i5 construct is described by Conklin et al., Nature 363, 1993, p.274).
as §1
as §2, with “The plates were then placed in an incubator at 37° C. to equilibrate temperature and pH.” left out

[3] = biological target: T3, m5 receptor (Homo sapiens, UniProt P08912); assay: R-SAT / NIH 3T3 cells transfected with m5 muscarinic receptor; format: cell-based; details: NIH3T3; m5; compound at 1.5 μM; maximum = response to 10 μM carbachol; read-out: Cellular response as a percentage of the maximum response of the cells
T3 construct: expressed in transfected cells; host or cells: NIH 3T3 (ATCC CRL 1658)
T3 sequence (P08912 1-532): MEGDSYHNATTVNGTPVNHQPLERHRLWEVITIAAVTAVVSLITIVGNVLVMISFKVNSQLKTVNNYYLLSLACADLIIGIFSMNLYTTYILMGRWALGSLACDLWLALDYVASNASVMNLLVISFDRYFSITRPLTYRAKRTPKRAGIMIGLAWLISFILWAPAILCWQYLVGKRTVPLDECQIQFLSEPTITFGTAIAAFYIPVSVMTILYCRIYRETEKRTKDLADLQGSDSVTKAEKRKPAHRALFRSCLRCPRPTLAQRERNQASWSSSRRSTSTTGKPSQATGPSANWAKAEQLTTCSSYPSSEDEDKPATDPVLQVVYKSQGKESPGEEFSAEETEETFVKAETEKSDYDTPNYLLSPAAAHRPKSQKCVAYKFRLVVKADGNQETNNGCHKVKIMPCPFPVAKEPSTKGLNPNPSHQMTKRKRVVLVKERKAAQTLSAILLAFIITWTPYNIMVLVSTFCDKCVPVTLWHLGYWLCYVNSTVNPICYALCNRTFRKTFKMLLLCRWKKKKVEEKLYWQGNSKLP
Excerpt: as §3, §4, §5, §1
as §2, with “The plates were then placed in an incubator at 37° C. to equilibrate temperature and pH.” left out

[4] = human, in vivo; cited from earlier work

T2 sequence (P20309 whole entry): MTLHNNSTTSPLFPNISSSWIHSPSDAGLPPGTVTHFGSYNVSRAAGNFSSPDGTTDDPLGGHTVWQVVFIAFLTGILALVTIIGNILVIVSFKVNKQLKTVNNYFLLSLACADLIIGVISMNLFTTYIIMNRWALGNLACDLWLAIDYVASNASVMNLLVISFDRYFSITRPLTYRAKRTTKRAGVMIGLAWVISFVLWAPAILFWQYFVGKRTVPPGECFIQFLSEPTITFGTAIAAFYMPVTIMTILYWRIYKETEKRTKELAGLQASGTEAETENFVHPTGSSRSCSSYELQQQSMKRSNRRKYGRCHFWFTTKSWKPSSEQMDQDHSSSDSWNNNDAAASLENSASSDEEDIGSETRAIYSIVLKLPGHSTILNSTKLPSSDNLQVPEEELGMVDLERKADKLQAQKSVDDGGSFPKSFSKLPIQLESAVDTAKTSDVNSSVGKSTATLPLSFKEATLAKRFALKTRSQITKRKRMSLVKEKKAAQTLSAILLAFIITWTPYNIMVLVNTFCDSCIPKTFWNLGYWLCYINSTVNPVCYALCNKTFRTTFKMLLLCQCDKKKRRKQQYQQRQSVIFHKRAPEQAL

## CCCCC1CCN(CCCC(=O)c2ccccc2OCC)CC1 [B, 4-n-Butyl-1-[4-(2ethoxyphenyl)-4-oxo-1-butyl]piperidine]
[1]
  Emax at 1.5 µM: 76%
[2]
  Emax at 1.5 µM: 7%
[3]
  Emax at 1.5 µM: -6%

## CCCCC1CCN(CCCC(=O)c2ccccc2O)CC1 [C, 4-n-Butyl-1-[4-(2-hydroxyphenyl)-4-oxo-1-butyl]piperidine]
[1]
  Emax at 1.5 µM: 91%
[2]
  Emax at 1.5 µM: 4%
[3]
  Emax at 1.5 µM: 0%

## CCCCC1CCN(CCCC(=O)c2cccc(C)c2C)CC1 [D, 4-n-Butyl-1-[4-(2,3-dimethylphenyl)-4-oxo-1-butyl]piperidine]
[1]
  Emax at 1.5 µM: 72%
[2]
  Emax at 1.5 µM: 13%
[3]
  Emax at 1.5 µM: 2%

## CCCCC1CCN(CCCC(=O)c2ccc(C)cc2C)CC1 [E, 4-n-Butyl-1-[4-(2,4-dimethylphenyl)-4-oxo-1-butyl]piperidine]
[1]
  Emax at 1.5 µM: 42%
[2]
  Emax at 1.5 µM: 9%
[3]
  Emax at 1.5 µM: -3%

## CCCCC1CCN(CCCC(=O)c2ccccc2OC)CC1 [F, 4-n-Butyl-1-[4-(2-methoxyphenyl)-4-oxo1-butyl]piperidine]
[1]
  Emax at 1.5 µM: 65%
[2]
  Emax at 1.5 µM: 9%
[3]
  Emax at 1.5 µM: 5%

## CCCCC1CCN(CCCC(=O)c2ccccc2)CC1 [G, 4-n-Butyl-1-[4-phenyl-4-oxo-1-butyl]piperidine]
[1]
  Emax at 1.5 µM: 66%
[2]
  Emax at 1.5 µM: 16%
[3]
  Emax at 1.5 µM: 7%

## Nc1c2c(nc3ccccc13)CCCC2 [Tacrine, 9-amino-1,2,3,4-tetrahydroacridine]
[4]
  patients with elevated liver transaminases (hepatotoxicity): about 30%
  patients with gastrointestinal side effects: about a third
